Patent publication US7671054B1, “Reverse-turn mimetics and method relating thereto” (Choongwae Pharma Corporation, priority 2001, dated 2010)
In brackets after ≈: the same amount, converted by molar mass.

Columns and labels:
Assay in all cases: Sulforhodamine B (SRB) assay
Assay type in all cases: cell-based
SK-MEL-5 = conditions: Homo sapiens; SK-MEL-5, Melanoma; 48 hours; read-out: GI50 (SRB in vitro cytotoxicity)
Description: (§1) Growth inhibitory effect of Compound A on the cells listed below was measured by the sulforhodamine B assay. SW480 cells in 100 μl media were plated in each well of 96-well plate and allowed to attach for 24 hours. Compound A was added to the wells to produce the desired final concentrations, and the plates were incubated at 37° C. for 48 hours. The cells were then fixed by gentle addition of 100 μl of cold (4° C.) 10% trichloroacetic acid to each well, followed by incubation at 4° C. for 1 hour. Plates were washed with deionized water five times and allowed to air dry. The cells were then stained by addition of 100 μl SRB solution (0.4% SRB(w/v) in 1% acetic acid (v/v)) to wells for 15 min. After staining, the plates were quickly washed five times with 1% acetic acid to remove any unbound dye, and allowed to air dry. Bound dye was solubilized with 10 mmol/L Tris base (pH 10.5) prior to reading the plates. The optical density (OD) was read on a plate reader at a wavelength of 515 nm with Molecular Device. Inhibition of growth was expressed as relative viability (% of control) and GI50 was calculated from concentration-response curves after log/probit transformation.

HCT15 = conditions: Homo sapiens, HCT-15; HCT15, Colon; 48 hours; read-out: GI50 (SRB in vitro cytotoxicity)
Description: as §1

SW480-Kribb = conditions: Colon, 48 hours, read-out: GI50 (SRB in vitro cytotoxicity)
Description: as §1

M14 = conditions: Homo sapiens; M14, Melanoma; 48 hours; read-out: GI50 (SRB in vitro cytotoxicity)
Description: as §1

HMV-II = conditions: Melanoma, 48 hours, read-out: GI50 (SRB in vitro cytotoxicity)
Description: as §1

PC3 = conditions: Homo sapiens, PC-3; PC3, Prostate; 48 hours; read-out: GI50 (SRB in vitro cytotoxicity)
Description: as §1

RPM17951 = conditions: RPM17951, Melanoma; 48 hours; read-out: GI50 (SRB in vitro cytotoxicity)
Description: as §1

CRL1579 = conditions: CRL1579, Melanoma; 48 hours; read-out: GI50 (SRB in vitro cytotoxicity)
Description: as §1

786-0 = conditions: Homo sapiens; 786-0, listed under Colon; 48 hours; read-out: GI50 (SRB in vitro cytotoxicity)
Description: as §1

A549 = conditions: Homo sapiens; A549, Lung; 48 hours; read-out: GI50 (SRB in vitro cytotoxicity)
Description: as §1

HT1080 = conditions: Homo sapiens, HT-1080; HT1080, listed under Prostate; 48 hours; read-out: GI50 (SRB in vitro cytotoxicity)
Description: as §1

RPMI8226 = conditions: Homo sapiens, RPMI-8226; RPMI8226, Leukemia; 48 hours; read-out: GI50 (SRB in vitro cytotoxicity)
Description: as §1

LOVO = conditions: Homo sapiens, Colon, 48 hours, read-out: GI50 (SRB in vitro cytotoxicity)
Description: as §1

MCF7/ADR = conditions: Homo sapiens, NCI/ADR-RES, Breast, 48 hours, read-out: GI50 (SRB in vitro cytotoxicity)
Description: as §1

MCF7 = conditions: Homo sapiens; MCF7, Breast; 48 hours; read-out: GI50 (SRB in vitro cytotoxicity)
Description: as §1

A253 = conditions: Homo sapiens; A253, Melanoma; 48 hours; read-out: GI50 (SRB in vitro cytotoxicity)
Description: as §1

LOX-IMVI = conditions: Homo sapiens, Melanoma, 48 hours, read-out: GI50 (SRB in vitro cytotoxicity)
Description: as §1

HL60 = conditions: Homo sapiens, HL-60; HL60, Leukemia; 48 hours; read-out: GI50 (SRB in vitro cytotoxicity)
Description: as §1

DLD-1 = conditions: Homo sapiens; DLD-1, Colon; 48 hours; read-out: GI50 (SRB in vitro cytotoxicity)
Description: as §1

CAKI-1 = conditions: Homo sapiens; CAKI-1, Renal; 48 hours; read-out: GI50 (SRB in vitro cytotoxicity)
Description: as §1

K562/VIN = conditions: Homo sapiens, Leukemia, 48 hours, read-out: GI50 (SRB in vitro cytotoxicity)
Description: as §1

NCI H460 = conditions: Homo sapiens; NCI H460, Lung; 48 hours; read-out: GI50 (SRB in vitro cytotoxicity)
Description: as §1

SW480-CWP = conditions: Colon, 48 hours, read-out: GI50 (SRB in vitro cytotoxicity)
Description: as §1

K562 = conditions: Homo sapiens; K562, Leukemia; 48 hours; read-out: GI50 (SRB in vitro cytotoxicity)
Description: as §1

K562/ADR = conditions: Homo sapiens, Leukemia, 48 hours, read-out: GI50 (SRB in vitro cytotoxicity)
Description: as §1

SK-MEL-28 = conditions: Homo sapiens; SK-MEL-28, Melanoma; 48 hours; read-out: GI50 (SRB in vitro cytotoxicity)
Description: as §1

G361 = conditions: Homo sapiens, G-361; G361, Melanoma; 48 hours; read-out: GI50 (SRB in vitro cytotoxicity)
Description: as §1

NCI H23 = conditions: Homo sapiens; NCI H23, Lung; 48 hours; read-out: GI50 (SRB in vitro cytotoxicity)
Description: as §1

**Q.** How did the GI50 (SK-MEL-5) turn out when `O=c1[nH]cc(F)c(=O)[nH]1` [Compound 5-FU, 5-fluorouracil] was run?
**A.** 2.43 µg/mL (≈ 18.7 µM)

**Q.** What about the GI50 (HCT15) of the same compound?
**A.** 1.18 µg/mL (≈ 9.06 µM)

**Q.** And the GI50 (SW480-Kribb)?
**A.** > 10 µg/mL

**Q.** And the GI50 (M14)?
**A.** 1.23 µg/mL (≈ 9.42 µM)

**Q.** And the GI50 (HMV-II)?
**A.** 0.695 µg/mL (≈ 5.34 µM)

**Q.** And the GI50 (PC3)?
**A.** > 10 µg/mL

**Q.** And the GI50 (RPM17951)?
**A.** 0.92 µg/mL (≈ 7.07 µM)

**Q.** And the GI50 (CRL1579)?
**A.** > 10 µg/mL

**Q.** And the GI50 (786-0)?
**A.** 0.584 µg/mL (≈ 4.49 µM)

**Q.** And the GI50 (A549)?
**A.** 1.01 µg/mL (≈ 7.74 µM)

**Q.** What about the GI50 (HT1080) of the same compound?
**A.** 0.798 µg/mL (≈ 6.13 µM)

**Q.** What about the GI50 (RPMI8226) of the same compound?
**A.** > 10 µg/mL

**Q.** What about the GI50 (LOVO) of the same compound?
**A.** 1.03 µg/mL (≈ 7.91 µM)

**Q.** And the GI50 (MCF7/ADR)?
**A.** > 10 µg/mL

**Q.** And the GI50 (MCF7)?
**A.** 1.75 µg/mL (≈ 13.5 µM)

**Q.** And the GI50 (A253)?
**A.** 2.93 µg/mL (≈ 22.5 µM)

**Q.** And the GI50 (LOX-IMVI)?
**A.** > 10 µg/mL

**Q.** And the GI50 (HL60)?
**A.** 7.01 µg/mL (≈ 53.9 µM)

**Q.** And the GI50 (DLD-1)?
**A.** > 10 µg/mL

**Q.** What about the GI50 (CAKI-1) of the same compound?
**A.** 0.925 µg/mL (≈ 7.11 µM)

**Q.** And the GI50 (K562/VIN)?
**A.** 7.07 µg/mL (≈ 54.4 µM)

**Q.** And the GI50 (NCI H460)?
**A.** 1.4 µg/mL (≈ 10.7 µM)

**Q.** What about the GI50 (SW480-CWP) of the same compound?
**A.** > 10 µg/mL

**Q.** What about the GI50 (K562) of the same compound?
**A.** 6.13 µg/mL (≈ 47.1 µM)

**Q.** What about the GI50 (K562/ADR) of the same compound?
**A.** > 10 µg/mL

**Q.** What about the GI50 (SK-MEL-28) of the same compound?
**A.** > 10 µg/mL

**Q.** And the GI50 (G361)?
**A.** 1.54 µg/mL (≈ 11.8 µM)

**Q.** And the GI50 (NCI H23)?
**A.** 2.25 µg/mL (≈ 17.3 µM)
